For the assay, the system named is L1210 leukemia ip in BDF1 mice, survival T/C. Nature of the assay: NCI In Vivo Anticancer Drug Screen. Data for tumor model L1210 Leukemia (intraperitoneal) in B6D2F1 (BDF1) mice. Particulars: endpoint: mean survival time, higher = longer survival. The method, boiled down: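 Antitumor effect is assessed in tumor-bearing animals. Survival in the compound arm is compared with a vehicle-dosed control arm and expressed as their quotient.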

Setting [1] is: dose: 100.0 mg/kg/injection, schedule: Q01DX001 (ip), vehicle: Klucel (hydroxypropylcellulose) (HPC).
[2] abbreviates: dose: 200.0 mg/kg/injection, schedule: Q01DX001 (ip), vehicle: Klucel (hydroxypropylcellulose) (HPC).
[3] abbreviates: dose: 400.0 mg/kg/injection, schedule: Q01DX001 (ip), vehicle: Klucel (hydroxypropylcellulose) (HPC).
The mark [4] stands for this setting: dose: 12.5 mg/kg/injection, schedule: Q01DX009 (ip), vehicle: saline with Tween-80.
Setting [5] is: dose: 50.0 mg/kg/injection, schedule: Q01DX001 (ip), vehicle: saline.
The mark [6] stands for this setting: dose: 100.0 mg/kg/injection, schedule: Q01DX001 (ip), vehicle: saline.
The mark [7] stands for this setting: dose: 200.0 mg/kg/injection, schedule: Q01DX001 (ip), vehicle: saline.
The mark [8] stands for this setting: dose: 100.0 mg/kg/injection, schedule: Q04DX002 (ip), vehicle: Klucel (hydroxypropylcellulose) (HPC).
Where [9] appears, read: dose: 200.0 mg/kg/injection, schedule: Q04DX002 (ip), vehicle: Klucel (hydroxypropylcellulose) (HPC).
The mark [10] stands for this setting: dose: 400.0 mg/kg/injection, schedule: Q04DX002 (ip), vehicle: Klucel (hydroxypropylcellulose) (HPC).
Where [11] appears, read: dose: 400.0 mg/kg/injection, schedule: Q01DX001 (ip), vehicle: saline.
Where [12] appears, read: dose: 12.5 mg/kg/injection, schedule: Q01DX009 (ip), vehicle: saline.
Setting [13] is: dose: 25.0 mg/kg/injection, schedule: Q01DX009 (ip), vehicle: saline.
Where [14] appears, read: dose: 50.0 mg/kg/injection, schedule: Q01DX009 (ip), vehicle: saline.
Setting [15] is: dose: 100.0 mg/kg/injection, schedule: Q01DX009 (ip), vehicle: Klucel (hydroxypropylcellulose) (HPC).
The mark [16] stands for this setting: dose: 200.0 mg/kg/injection, schedule: Q01DX009 (ip), vehicle: Klucel (hydroxypropylcellulose) (HPC).
[17] abbreviates: dose: 400.0 mg/kg/injection, schedule: Q01DX009 (ip), vehicle: Klucel (hydroxypropylcellulose) (HPC).
[18] abbreviates: dose: 100.0 mg/kg/injection, schedule: Q01DX009 (ip), vehicle: saline with Tween-80.
Setting [19] is: dose: 200.0 mg/kg/injection, schedule: Q01DX009 (ip), vehicle: saline with Tween-80.
[20] abbreviates: dose: 400.0 mg/kg/injection, schedule: Q01DX009 (ip), vehicle: saline with Tween-80.
Where [21] appears, read: dose: 100.0 mg/kg/injection, schedule: Q04DX003 (ip), vehicle: Klucel (hydroxypropylcellulose) (HPC).
The mark [22] stands for this setting: dose: 200.0 mg/kg/injection, schedule: Q04DX003 (ip), vehicle: Klucel (hydroxypropylcellulose) (HPC).
Where [23] appears, read: dose: 400.0 mg/kg/injection, schedule: Q04DX003 (ip), vehicle: Klucel (hydroxypropylcellulose) (HPC).

“And” between values parts separate entries of the source, which are not always exact repeats. Equal entries are not always repeated. Toxic doses and inconclusive results are not listed.

Results on 19 molecules are retold here after PubChem BioAssay AID248 (DTP/NCI, 2004).

Take `CC1(C)OCC(C2OC3OC(c4ccccc4)=NC3C2O)O1` (configuration not stated): the T/C by setting is: under setting [1], 96 % of control; under setting [2], 104 % of control; under setting [3], 101 % of control.

For the molecule `[Cu+2].[NH-]c1ccccc1C(=O)O.[NH-]c1ccccc1C(=O)O`, the T/C by setting is: under setting [4], 101 % of control; (dose: 12.5 mg/kg/injection, schedule: Q04DX003 (ip), vehicle: saline with Tween-80) 97 % of control; (dose: 25.0 mg/kg/injection, schedule: Q01DX009 (ip), vehicle: saline with Tween-80) 101 % of control; (dose: 25.0 mg/kg/injection, schedule: Q04DX003 (ip), vehicle: saline with Tween-80) 97 % of control; (dose: 50.0 mg/kg/injection, schedule: Q01DX009 (ip), vehicle: saline with Tween-80) 88 % of control; (dose: 50.0 mg/kg/injection, schedule: Q04DX003 (ip), vehicle: saline with Tween-80) 90 % of control.

On to `CCCCCCNC(=S)Nc1ccccc1`, for which the T/C by setting is: under setting [5], 97 % of control; under setting [6], 103 % of control; under setting [7], 97 % of control.

For `Cc1nc(C(=O)O)c(=O)[nH]c1C`, the T/C was 103 % of control (dose: 50.0 mg/kg/injection, schedule: Q01DX009 (ip), vehicle: water); 103 % of control (dose: 100.0 mg/kg/injection, schedule: Q01DX009 (ip), vehicle: water); 102 % of control (dose: 100.0 mg/kg/injection, schedule: Q04DX003 (ip), vehicle: water); 101 % of control (dose: 200.0 mg/kg/injection, schedule: Q01DX009 (ip), vehicle: water); 101 % of control (dose: 200.0 mg/kg/injection, schedule: Q04DX003 (ip), vehicle: water).

For the molecule `O=C1Nc2ccccc2C2=C3CCCCC3=NNC12` (configuration not stated), the T/C under setting [8] was 101 % of control, the T/C under setting [9] is 97 % of control and the T/C under setting [10] is 108 % of control.

As for `CCCC(C)c1cc([N+](=O)[O-])cc([N+](=O)[O-])c1O` (configuration not stated), the T/C is, setting by setting: (dose: 3.12 mg/kg/injection, schedule: Q01DX009 (ip), vehicle: saline with Tween-80) 107 % of control; (dose: 6.25 mg/kg/injection, schedule: Q01DX009 (ip), vehicle: saline with Tween-80) 98 % of control; under setting [4], 91 % of control.

`COc1ccc(Cc2ccc(OC)cc2)cc1`: the T/C under setting [5] is 96 % of control, the T/C under setting [6] was 96 % of control, the T/C under setting [7] was 96 % of control and the T/C under setting [11] is 90 % of control.

Take `OCCN1CCN(CCCN2c3ccccc3C=Cc3ccccc32)CC1`: the T/C (dose: 6.25 mg/kg/injection, schedule: Q01DX009 (ip), vehicle: saline) is 93 % of control; the T/C under setting [12] was 93 % of control; the T/C under setting [13] was 95 % of control; the T/C (dose: 25.0 mg/kg/injection, schedule: Q04DX003 (ip), vehicle: saline) is 93 % of control; the T/C under setting [14] was 102 % of control; the T/C (dose: 50.0 mg/kg/injection, schedule: Q04DX003 (ip), vehicle: saline) was 98 % of control. The T/C (dose: 100.0 mg/kg/injection, schedule: Q04DX003 (ip), vehicle: saline) is 102 % of control.

Turning to `CCC(C)N(CCCOC(=O)c1ccc(N)cc1)C(C)CC` (configuration not stated), the T/C was 106 % of control under setting [12], 104 % of control under setting [13] and 97 % of control under setting [14].

Turning to `CC(C)CC(N=C(NC(CC(C)C)C(=O)O)c1ccccc1)C(=O)O` (configuration not stated), the T/C is 108 % of control under setting [15], 105 % of control under setting [16] and 95 % of control under setting [17].

As to `c1ncc(OCCN2CC2)nc1OCCN1CC1`, the T/C runs as follows: (dose: 0.12 mg/kg/injection, schedule: Q01DX009 (ip), vehicle: carboxymethylcellulose (CMC)) 102 % of control; (dose: 0.25 mg/kg/injection, schedule: Q01DX009 (ip), vehicle: carboxymethylcellulose (CMC)) 108 % of control; (dose: 0.5 mg/kg/injection, schedule: Q01DX009 (ip), vehicle: carboxymethylcellulose (CMC)) 102 % of control; (dose: 0.5 mg/kg/injection, schedule: Q01DX009 (ip), vehicle: saline) 97 % of control; (dose: 1.0 mg/kg/injection, schedule: Q01DX009 (ip), vehicle: carboxymethylcellulose (CMC)) 95 % of control; (dose: 1.0 mg/kg/injection, schedule: Q01DX009 (ip), vehicle: saline) 97 % of control. The T/C runs as follows: (dose: 3.0 mg/kg/injection, schedule: Q01DX009 (ip), vehicle: saline) 156 % of control; (dose: 11.1 mg/kg/injection, schedule: Q01DX001 (ip), vehicle: carboxymethylcellulose (CMC)) 124 % of control; (dose: 11.1 mg/kg/injection, schedule: Q01DX001 (ip), vehicle: saline) 120 % of control.

Consider `COc1cc(CN)cc(OC)c1OC`, for which the T/C is 100 % of control under setting [5], 96 % of control under setting [6], 96 % of control under setting [7] and 100 % of control under setting [11].

Turning to `CCCCCCCCCCCC[N+](C)(C)C(C)Cc1ccccc1` (configuration not stated), the T/C reads like this: (dose: 10.0 mg/kg/injection, schedule: Q01DX001 (ip), vehicle: saline) 98 % of control; (dose: 20.0 mg/kg/injection, schedule: Q01DX001 (ip), vehicle: saline) 98 % of control.

On to `CCC(=O)O[C@H]1CC[C@H]2[C@@H]3C[C@H](F)C4=CC(=O)CC[C@]4(C)[C@H]3CC[C@]12C`, for which the T/C runs as follows: under setting [18], 102 % of control; under setting [19], 93 % of control; under setting [20], 91 % of control.

Consider `CS(=O)(=O)Oc1ccccc1OS(C)(=O)=O`, for which the T/C (dose: 100.0 mg/kg/injection, schedule: Q04DX002 (ip), vehicle: saline with Tween-80) is 91 % of control and the T/C (dose: 200.0 mg/kg/injection, schedule: Q04DX002 (ip), vehicle: saline with Tween-80) is 107 % of control.

Regarding `CCOC(=O)/C=C(\c1ccccc1)c1ccc([N+](=O)[O-])cc1`, the T/C under setting [1] was 94 % of control; the T/C under setting [15] was 105 % of control and 90 % of control; the T/C under setting [8] is 93 % of control and 98 % of control; the T/C under setting [21] is 107 % of control; the T/C under setting [2] is 98 % of control; the T/C under setting [16] was 103 % of control and 90 % of control. Moreover, the T/C is 100 % of control and 106 % of control under setting [9]; 102 % of control under setting [22]; 102 % of control under setting [3]; 106 % of control and 110 % of control under setting [17]; 98 % of control and 100 % of control under setting [10]; 98 % of control under setting [23].

Regarding `CCOc1ccc(/C=C/C(=O)c2ccc(C)cc2)cc1OCC`, the T/C is 100 % of control (dose: 75.0 mg/kg/injection, schedule: Q04DX003 (ip), vehicle: saline); 102 % of control (dose: 150.0 mg/kg/injection, schedule: Q04DX003 (ip), vehicle: saline); 105 % of control (dose: 300.0 mg/kg/injection, schedule: Q04DX003 (ip), vehicle: saline).

With `CCCCCCCCCCCCCCCCCCNC(=O)N1CC1`, the T/C is, setting by setting: under setting [18], 93 % of control; under setting [21], 88 % of control; under setting [19], 94 % of control; under setting [22], 100 % of control; under setting [20], 93 % of control; under setting [23], 93 % of control.

Take `CC1CCC(NC2=NCCO2)C(C)C1` (configuration not stated): the T/C (dose: 100.0 mg/kg/injection, schedule: Q04DX003 (ip), vehicle: saline with Tween-80) was 91 % of control.
